One may read the EC50 as the concentration that produces a half-maximal response. A word on the IC50: it is the point on the concentration scale where inhibition reaches its midpoint.

Assay [1] concerns Jurkat NFκB-luciferase cells. Kind of assay: Jurkat NFκB-Luciferase Assay. Format: cell-based. The following applies: Homo sapiens; Jurkat NFκB-luciferase cells activated with anti-CD3 antibody (OKT3), 2.5 hrs at 37° C.; geometric mean; read-out: DGK NFKb Luciferase EC50. Summed up:
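Jurkat NFκB-luciferase reporter cells at 1 million cells/ml in RPMI with 10% FBS were added to antibody-coated, compound-containing wells. Luciferase activity read by One-Glo Ex luminescence 7 minutes after reagent addition.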

A further assay addresses human DGKα (Homo sapiens, UniProt P23743). Kind of assay: DGKα Biochemical Activity Assay (ADP-Glo). (In ADP-Glo the light output rises with the ADP produced.)
[2] abbreviates: recombinant DGKα 1 nM, 100 μM ATP, 18:1 DAG/POPS/octylglucoside micelles, 1 hour at 25° C., geometric mean, read-out: HTBS DGKa 1X ATP KM IC50.

The structures appear in SMILES notation. Read-outs that look alike come from different tables or passages of the source.
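Wherever IC50 is given: luminescent detection of ADP produced as DGKα phosphorylates DAG to phosphatidic acid, IC50 from four-parameter nonlinear curve fit.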

Chain of human DGKα (P23743 whole entry): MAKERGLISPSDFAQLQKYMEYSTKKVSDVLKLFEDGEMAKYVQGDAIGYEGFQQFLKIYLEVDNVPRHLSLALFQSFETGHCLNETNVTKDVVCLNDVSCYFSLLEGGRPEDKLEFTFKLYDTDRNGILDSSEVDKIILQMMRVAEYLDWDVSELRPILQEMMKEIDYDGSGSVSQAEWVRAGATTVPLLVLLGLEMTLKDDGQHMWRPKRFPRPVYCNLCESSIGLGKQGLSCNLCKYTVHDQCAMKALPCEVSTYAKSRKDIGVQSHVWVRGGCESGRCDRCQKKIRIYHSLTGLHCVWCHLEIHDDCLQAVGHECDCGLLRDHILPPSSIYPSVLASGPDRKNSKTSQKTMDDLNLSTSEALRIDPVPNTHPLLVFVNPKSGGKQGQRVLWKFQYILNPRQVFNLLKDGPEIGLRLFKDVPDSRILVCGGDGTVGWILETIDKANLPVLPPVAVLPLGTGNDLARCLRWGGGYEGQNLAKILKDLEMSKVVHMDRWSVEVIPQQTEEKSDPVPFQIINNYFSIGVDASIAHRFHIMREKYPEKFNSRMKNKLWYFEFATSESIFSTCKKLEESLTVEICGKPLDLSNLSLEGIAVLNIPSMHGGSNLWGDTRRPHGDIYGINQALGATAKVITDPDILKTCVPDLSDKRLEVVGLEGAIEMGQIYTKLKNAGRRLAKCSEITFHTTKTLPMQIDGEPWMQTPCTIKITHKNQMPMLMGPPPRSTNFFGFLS

As to `Cc1nnc2nc(N3CCCc4c(C#CC(C)(C)C#N)cccc43)c3cc(F)ccc3n12` [Example 244, 4-[1-(7-fluoro-1-methyl-[1,2,4]triazolo[4,3-a]quinazolin-5-yl)-3,4-dihydro-2H-quinolin-5-yl]-2,2-dimethyl-but-3-ynenitrile], the EC50 in assay [1] came out at 3.24 nM. For the same molecule, the IC50 on human DGKα (setting [2]) is 10.2 nM.

`Cc1nnc2nc(N(CC(F)F)c3cc(F)cc(C#CC(C)(C)C#N)c3)c3cc(F)ccc3n12` [Example 245, 4-[3-[2,2-difluoroethyl-(7-fluoro-1-methyl-[1,2,4]triazolo[4,3-a]quinazolin-5-yl)amino]-5-fluoro-phenyl]-2,2-dimethyl-but-3-ynenitrile]: in assay [1], the EC50 was 6.75 nM. Also, the IC50 on human DGKα (setting [2]) was 21.2 nM.

As to `Cc1nnc2nc(N3CCCc4c(C#CC5CCC5)cccc43)c3c(F)cccc3n12` [Example 246, 5-[5-(2-cyclobutylethynyl)-3,4-dihydro-2H-quinolin-1-yl]-6-fluoro-1-methyl-[1,2,4]triazolo[4,3-a]quinazoline], the EC50 in assay [1] was found to be 0.272 nM. Further, the IC50 on human DGKα (setting [2]) is 39.3 nM.

As for `Cc1nnc2nc(N3CCN(C)Cc4c(C#CC(C)(C)C#N)cccc43)c3c(F)cccc3n12` [compound 163], the EC50 in assay [1] turned out to be 28.4 nM. This molecule displayed an IC50 on human DGKα of 17.1 nM.

The record behind these values is US11976072B2, “Diacylglycerol kinase modulating compounds” (priority 2021, dated 2024).
